Source: publication PMC11108815 (Heliyon, 2024)

Assays:
[1] = Pharmacokinetics in rat plasma; assay type: in vivo, Wistar rats; conditions: for AUC(0-t) / AUC(0-inf) / CL/F / Cmax / MRT last / MRT inf / half-life / Tmax: Wistar, rat, plasma, po, 100 mg/kg; for AUC(0-t): AUC0-t; for AUC(0-inf): AUC0-∞; for CL/F: CLz/F; for MRT last: MRT0-t; for MRT inf: MRT0-∞; for shape of the drug-time curve: both the control and model groups treated with oral FS or FT
[2] = Stability test of QC samples; assay type: physicochemical, rat
[3] = FS-C: normal (blank) rats, oral FS 100 mg kg^−1, n = 6
[4] = FT-C: normal (blank) rats, oral FT 100 mg kg^−1, n = 6
[5] = T1/2, FS-C: normal (blank) rats, oral FS 100 mg kg^−1, n = 6
[6] = T1/2, FT-C: normal (blank) rats, oral FT 100 mg kg^−1, n = 6
[7] = control group, after oral administration of FS or FT
[8] = Store at 4 °C for 24 h, high concentration QC sample in rat plasma
[9] = Store at 4 °C for 24 h, low concentration QC sample in rat plasma
[10] = Store at 4 °C for 24 h, medium concentration QC sample in rat plasma
[11] = Store at room temperature for 12 h, high concentration QC sample in rat plasma
[12] = Store at room temperature for 12 h, low concentration QC sample in rat plasma
[13] = Store at room temperature for 12 h, medium concentration QC sample in rat plasma
[14] = Store at −20 °C for 20 days, high concentration QC sample in rat plasma
[15] = Store at −20 °C for 20 days, low concentration QC sample in rat plasma
[16] = Store at −20 °C for 20 days, medium concentration QC sample in rat plasma
[17] = Three freeze-thaw cycles, high concentration QC sample in rat plasma
[18] = Three freeze-thaw cycles, low concentration QC sample in rat plasma
[19] = Three freeze-thaw cycles, medium concentration QC sample in rat plasma

| SMILES | AUC(0-t) [1, 4] | AUC(0-inf) [1, 4] | CL/F [1, 4] | Cmax [1, 4] | MRT last [1, 4] | MRT inf [1, 4] | half-life [1, 6] | Tmax [1, 4] | Tmax [1, 7] | Stability, Accuracy (RE, %) [2, 8] | Stability, Accuracy (RE, %) [2, 9] | Stability, Accuracy (RE, %) [2, 10] | Stability, Accuracy (RE, %) [2, 11] | Stability, Accuracy (RE, %) [2, 12] | Stability, Accuracy (RE, %) [2, 13] | Stability, Accuracy (RE, %) [2, 14] | Stability, Accuracy (RE, %) [2, 15] | Stability, Accuracy (RE, %) [2, 16] | Stability, Accuracy (RE, %) [2, 17] | Stability, Accuracy (RE, %) [2, 18] | further results |
| --- | --- | --- | --- | --- | --- | --- | --- | --- | --- | --- | --- | --- | --- | --- | --- | --- | --- | --- | --- | --- | --- |
| O=C(/C=C/c1ccc(O)c2c1[C@H](C(=O)O)[C@@H](c1ccc(O)c(O)c1)O2)O[C@H](Cc1ccc(O)c(O)c1)C(=O)O [Lithospermic acid] | 119 ± 48.8 ng·h/mL | 119 ± 48.9 ng·h/mL | 289 mL/min/kg | 13.7 ± 2.76 ng/mL | 8.67 ± 3.71 h | 8.67 ± 3.71 h | 1.03 ± 0.45 h | 0.22 ± 0.13 h | < 0.39 h | 7.65% | 6.82% | 6.58% | 11.92% | −5.80% | 0.69% | −0.73% | −8.45% | 0.15% | −10.67% | 6.56% | AUC(0-t) [1, 3]: 128 ± 40.5 ng·h/mL; AUC(0-inf) [1, 3]: 164 ± 85 ng·h/mL; CL/F [1, 3]: 150 mL/min/kg; Cmax [1, 3]: 11.4 ± 1.33 ng/mL; MRT last [1, 3]: 6.61 ± 1.61 h; MRT inf [1, 3]: 11.1 ± 10.8 h; half-life [1, 5]: 5.06 ± 8.9 h; Tmax [1, 3]: 0.31 ± 0.16 h; AUC0-t in model group compared with control group ([1]; after modeling, p < 0.01, 0.05): significantly higher; shape of the drug-time curve [1]: bimodal phenomenon; Cmax after modeling compared with control group ([1]; oral administration of FS): increased; Stability, Accuracy (RE, %) [2, 19]: 9.01% |
| C[C@@H]1O[C@@H](OC[C@H]2O[C@@H](Oc3c(-c4ccc(O)c(O)c4)oc4cc(O)cc(O)c4c3=O)[C@H](O)[C@@H](O)[C@@H]2O)[C@H](O)[C@H](O)[C@H]1O [Rutin] | 77.9 ± 11.9 ng·h/mL | 116 ± 83.4 ng·h/mL | 342 mL/min/kg | 5.77 ± 0.62 ng/mL | 7.51 ± 0.81 h | 15.4 ± 18.6 h | 7.39 ± 14.3 h | 1.06 ± 1.47 h | > 0.47 h | 0.42% | 3.07% | 7.93% | 11.51% | −6.74% | 0.45% | −1.16% | 7.31% | −5.30% | 4.10% | −8.01% | Stability, Accuracy (RE, %) [2, 19]: −5.39% |
| O=C(/C=C/c1ccc(O)c(O)c1/C=C/c1ccc(O)c(O)c1)O[C@H](Cc1ccc(O)c(O)c1)C(=O)O [Salvianolic acid A] | 122 ± 30.9 ng·h/mL | 162 ± 87.3 ng·h/mL | 37 mL/min/kg | 8.58 ± 1.35 ng/mL | 8.8 ± 1.62 h | 15 ± 11.6 h | 7.38 ± 9.48 h | 0.56 ± 0.36 h | > 0.47 h | −0.93% | 1.81% | 11.49% | 3.31% | −1.96% | −3.89% | 2.45% | 7.09% | −9.12% | −10.32% | 1.08% | AUC(0-t) [1, 3]: 107 ± 46.1 ng·h/mL; AUC(0-inf) [1, 3]: 168 ± 139 ng·h/mL; CL/F [1, 3]: 74.8 mL/min/kg; Cmax [1, 3]: 13.2 ± 8.35 ng/mL; MRT last [1, 3]: 7.12 ± 2.26 h; MRT inf [1, 3]: 17 ± 17.6 h; half-life [1, 5]: 9.92 ± 13.7 h; Tmax [1, 3]: 0.63 ± 0.42 h; shape of the drug-time curve [1]: bimodal phenomenon; Stability, Accuracy (RE, %) [2, 19]: 11.33% |
